Measurements taken from patent publication US7351739B2, “Bioactive compounds and methods of uses thereof” (Wellgen, Inc., priority 2004, dated 2008).

Columns and labels:
[1] = tested on: HCT116 colon cancer cells; assay: Soft agar colony formation / human tumor phenotype expression; format: cell-based
Description: (§1) Cell cultures: The JB6 mouse epidermal cell line Cl 41 or its stable AP-1 luciferase reporter plasmid stable transfectant was maintained with Eagles minimal essential medium (MEM), containing 5% fetal bovine serum (FBS), 2 mM L-glutamine and […] gentamicin or 50 IU/ml penicillin G and 50 μg/ml streptomycin, in an atmosphere of 95% air-5% CO2 at 37° C. Cells were seeded at a density of 5×10^4 cells/ml and cultured for 24 h. The cells were serum-starved in 0.1% FBS in MEM for 36 h to synchronize the cell cycle into G0 phase. The cells were treated with various concentrations of the test compound or distilled water (as a control) for 1 h, followed, by addition of MTS assay buffer for toxicity studies or 12-O-tetradecanoylphorbol-13-acetate (TPA) or epidermal growth factor (EGF at 10-20 ng/ml) to determine AP-1 activation. Some cells were used for cell transformation assays as described below. For human phenotype expression assays, human colon HCT116, human lung cancer HT460, human skin melanoma SK-MEL-28 or human ovarian SK-OV3 cells were cultured in their respective medium and harvested for soft agar assays.
(§2) Anchorage-independent transfornation assay: Inhibition of test compounds on TPA or EGF-induced cell transformation or human tumor phenotype expression was investigated under anchorage independent conditions. Samples of 1×10^4 cells were exposed to TPA (20 ng/ml) or EGF (20 ng/ml) with or without different concentrations of test compound inl ml 0.33% basal medium Eagle (BME) agar containing 10% FBS over 3.5 ml 0.5% BME agar medium containing 10% FBS. Gingerol was dissolved in 100% ethanol. Ethanol was used in the control group for comparison. The cultures were maintained in a 37° C., 5% CO2 incubator for 14-21 days and the cell colonies were scored by a computerized program integrated with a light microscope. Human tumor cells were treated in a similar manner but no EGF or TPA was needed.

[2] = tested on: SK-MEL-28 skin cancer cells; assay: as above; format: cell-based
Description: as §1, §2

[3] = tested on: HT460 lung cancer cells; assay: as above; format: cell-based; settings: for Effect against human lung cancer cells, colony formation (figure statement, in words): concentration not given
Description: as §1, §2

[4] = tested on: JB6 C141 cells; assay: Anchorage-independent (soft agar) neoplastic cell transformation assay, EGF-exposed; format: cell-based, mouse
Description: as §1, §2

[5] = tested on: JB6 C141 mouse skin cells; assay: MTS toxicity (cell proliferation) assay; format: cell-based; settings: 50 μM
Description: as §1, with “For human phenotype expression assays, human colon HCT116, human lung cancer HT460, human skin melanoma SK-MEL-28 or human ovarian SK-OV3 cells were cultured in their respective medium and harvested for soft agar assays.” left out
Cell Proliferation Assay (MTS Assay): Cell proliferation was analyzed using the CELLTITER 96® AQueous One Solution Cell Proliferation Assay (Promega, Madison, Wis.) following the instructions provided. […] Then the absorbance of a colored formazan product catalyzed by dehydrogenase enzymes in metabolically active cells was recorded at 492 nm with 690 nm as a background. Data were expressed as the percentage of absorbance of untreated control cells.

[6] = tested on: skin cancer induced by UVA exposure in hairless mice; assay: UVA-induced skin tumors in SKh-1 hairless mice, topical treatment; format: in vivo; settings: day 84, 30 micrograms per mouse on tumors, 5 days a week, day 21 to 53
Description: Twenty SKh-1 hairless mice were exposed to UVA to induce skin tumor formation. […] Rubescensin J was dissolved in DMSO and then brought up to volume in acetone. The two groups. of mice were treated with rubescensin J in acetone, and acetone alone, respectively. […] Five days a week, each mouse received a total of 30 micrograms applied directly on tumor(s) in a volume of 250 microliters. The compound was made fresh each day. Tumor numbers and sizes were monitored and recorded periodically.
Initial measurements were taken on day 1, 14 and 20, and the first treatment was applied on day 21. The experimental group of mice were treated with the compound 5 days a week until the compound was depleted on day 53. Measurement #1 through to #11 were made on day 14, 20, 24, 28, 32, 36, 39, 43, 51, 53, and 84. The numbers of tumor papillomas and the tumor volumes are expressed as a percentage of the number of papillomas and tumor volume on day 1.

[7] = tested on: SK-OV-3 ovarian cancer cells; assay: Soft agar colony formation / human tumor phenotype expression; format: cell-based
Description: as §1, §2

[8] = Homo sapiens, 25 μM, read-out: % Inhibition: HT 460 Lung Cancer

Compound: Rubescensin M
- % Inhibition: HCT116 Colon Cancer Cells ([1]; 75 μM): 90%
- Decreasing colony formation, human colon cancer cells (figure statement, in words) ([1]; concentration not given): particularly effective
- % Inhibition: SK-MEL-28 Skin Cancer ([2]; 50 μM): 100%
- Inhibition of SK-MEL-28 skin cancer cell growth (in words) ([2]; 50 μM): completely inhibited
- Effect against human skin melanoma cells, colony formation (figure statement, in words) ([2]; concentration not given): particularly effective
- % Inhibition: HT 460 Lung Cancer ([3]; 75 μM): 73%
- Effect against human lung cancer cells, colony formation (figure statement, in words) [3]: moderate inhibitory effect
- Inhibition of neoplastic transformation in JB6 cell (in words) ([4]; 100 μM): almost completely inhibits
- Prevention of neoplastic cell transformation, EGF, soft agar (figure statement, in words) ([4]; 100 μM): prevented neoplastic cell transformation
- % Inhibition: Neoplastic Transformation in JB6 Cells ([4]; text b462: 100 μM): 90%

Compound: C=C1[C@@H](OC(C)=O)[C@]23[C@H](O)[C@H]1CC[C@H]2[C@]12CCCC(C)(C)[C@H]1[C@H](OC(C)=O)[C@]3(O)OC2 [Rabdoternin C]
- % Inhibition: HCT116 Colon Cancer Cells ([1]; 100 μM): 68%
- Inhibition of HCT116 colon cancer cell growth (in words) ([1]; 100 μM): significantly inhibited
- Decreasing colony formation, human colon cancer cells (figure statement, in words) ([1]; concentration not given): particularly effective
- % Inhibition: SK-MEL-28 Skin Cancer ([2]; 100 μM): 5-10%
- Inhibition of SK-MEL-28 skin cancer cell growth (in words) ([2]; 100 μM): moderately inhibited
- Effect against human skin melanoma cells, colony formation (figure statement, in words) ([2]; concentration not given): some inhibitory effect
- % Inhibition: HT 460 Lung Cancer ([3]; 100 μM): 14%
- Inhibition of HT460 lung cancer cell growth (in words) ([3]; 100 μM): moderately inhibited
- Effect against human lung cancer cells, colony formation (figure statement, in words) [3]: some inhibitory effect
- Prevention of neoplastic cell transformation, EGF, soft agar (FIG. 21) ([4]; 10 μM): 50%
- Inhibition of neoplastic transformation in JB6 cell (in words) ([4]; 100 μM): completely inhibits
- % Inhibition: Neoplastic Transformation in JB6 Cells ([4]; text b465: 50% at 10 μM): 50%

Compound: CC1OC(OC2C(O)C(CO)OC(OCCc3ccc(OC(=O)/C=C/c4ccc(O)c(O)c4)c(O)c3)C2O)C(O)C(O)C1O (stereo not drawn) [Rubscendepside]
- Toxicity evaluation with MTS assay (in words) [5]: no Rubscendepside toxicity
- Inhibition of HCT116 colon cancer cell growth (in words) ([1]; 15 μM): significantly inhibits
- inhibition at 15 µM ([1]; Homo sapiens, HCT-116, 15 μM): 60%
- Decreasing colony formation, human colon cancer cells (figure statement, in words) ([1]; concentration not given): particularly effective
- Inhibition of SK-MEL-28 skin cancer cell growth (in words) ([2]; 25 μM): moderately inhibits
- inhibition at 25 µM ([2]; Homo sapiens, SK-MEL-28, 25 μM): 36%
- Effect against human skin melanoma cells, colony formation (figure statement, in words) ([2]; concentration not given): moderate inhibitory effect
- Inhibition of HT460 lung cancer cell growth (in words) ([3]; 25 μM): moderately inhibits
- inhibition at 25 µM [3, 8]: 37%
- Effect against human lung cancer cells, colony formation (figure statement, in words) [3]: moderate inhibitory effect
- Prevention of neoplastic cell transformation, EGF, soft agar (figure statement, in words) ([4]; 25 μM): prevented neoplastic cell transformation
- Inhibition of neoplastic transformation in JB6 cell (in words) ([4]; 50 μM): completely inhibits
- % Inhibition: Neoplastic Transformation in JB6 Cells ([4]; 20-50 μM): 80-100 (20-50 μM) %

Compound: C=C1[C@@H](O)[C@@]23C(CC[C@@H]1[C@H]2O)[C@]12CCCC(C)(C)C1[C@H](O)[C@]3(O)OC2=O (stereo partly drawn) [Rabdoternin A]
- Inhibition of HCT116 colon cancer cell growth (in words) ([1]; 25 μM): completely inhibited
- inhibition at 25 µM ([1]; Homo sapiens, HCT-116, 25 μM): 100%
- Decreasing colony formation, human colon cancer cells (figure statement, in words) ([1]; concentration not given): particularly effective
- Inhibition of SK-MEL-28 skin cancer cell growth (in words) ([2]; 15 μM): completely inhibits
- inhibition at 25 µM ([2]; Homo sapiens, SK-MEL-28, 25 μM): 100%
- Effect against human skin melanoma cells, colony formation (figure statement, in words) ([2]; concentration not given): particularly effective
- Inhibition of HT460 lung cancer cell growth (in words) ([3]; 25 μM): moderately inhibited
- inhibition at 25 µM [3, 8]: 10%
- Effect against human lung cancer cells, colony formation (figure statement, in words) [3]: moderate inhibitory effect
- Inhibition of neoplastic transformation in JB6 cell (in words) ([4]; 25 μM): completely inhibits
- Prevention of neoplastic cell transformation, EGF, soft agar (figure statement, in words) ([4]; 25 μM): prevented neoplastic cell transformation
- inhibition at 25 µM ([4]; Mus musculus, 25 μM): 100%

Compound: CC1(C)CC[C@H](O)[C@]23CO[C@@](O)([C@@H](O)C12)[C@]12C(=O)[C@@]4(CO4)[C@H](CCC31)[C@H]2O (stereo partly drawn) [Rubescensin J, 1α, 6β, 7β, 14β-tetrohydroxy-7α,20-epoxy-ent-kaur-16,17-exo-epoxide-15-one]
- Number of tumor papillomas as percentage of the number on day 1 ([6]; untreated group about 90%): ~50%
- Tumor volume as percentage of the volume on day 1 ([6]; untreated group about 120%): about 60%
- Inhibition of SK-OV-3 ovarian cancer cell growth (in words) ([7]; 20 μM): moderately inhibits
- inhibition at 20 µM ([7]; Homo sapiens, SK-OV-3, 20 μM): 15%
- Effect against human ovarian cancer cells, colony formation (figure statement, in words) ([7]; concentration not given): moderate inhibitory effect
- Decreasing colony formation, human colon cancer cells (figure statement, in words) ([1]; 10 μM): particularly effective
- Inhibition of HCT116 colon cancer cell growth (in words) ([1]; 20 μM): completely inhibits
- inhibition at 20 µM ([1]; Homo sapiens, HCT-116, 20 μM): 100%
- Effect against human skin melanoma cells, colony formation (figure statement, in words) ([2]; 20 μM): particularly effective
- Inhibition of SK-MEL-28 skin cancer cell growth (in words) ([2]; 20 μM): significantly inhibits
- inhibition at 20 µM ([2]; Homo sapiens, SK-MEL-28, 20 μM): 50%
- Inhibition of HT460 lung cancer cell growth (in words) ([3]; 20 μM): moderately inhibits
- inhibition at 20 µM ([3]; Homo sapiens, 20 μM, read-out: % Inhibition: HT 460 Lung Cancer): 20%
- Effect against human lung cancer cells, colony formation (figure statement, in words) [3]: moderate inhibitory effect
- Prevention of neoplastic cell transformation, EGF, soft agar (figure statement, in words) ([4]; 25 μM): prevented neoplastic cell transformation
- Inhibition of neoplastic transformation in JB6 cell (in words) ([4]; 40 μM): completely inhibits
- % Inhibition: Neoplastic Transformation in JB6 Cells ([4]; 20-40 μM): 83-100 (20-40 μM) %

Compound: C=C1[C@@H](O)[C@@]23C(CC[C@@H]1[C@H]2O)[C@@]12C(=O)O[C@@]3(O)[C@@H](O)C1C(C)(C)CC[C@@H]2O (stereo partly drawn) [Rabdoternin B]
- Inhibition of HCT116 colon cancer cell growth (in words) ([1]; 50 μM): completely inhibited
- inhibition at 50 µM ([1]; Homo sapiens, HCT-116, 50 μM): 100%
- Decreasing colony formation, human colon cancer cells (figure statement, in words) ([1]; concentration not given): particularly effective
- inhibition at 35 µM ([2]; Homo sapiens, SK-MEL-28, 35 μM): 0%
- inhibition at 35 µM ([3]; Homo sapiens, 35 μM, read-out: % Inhibition: HT 460 Lung Cancer): 0%
- Inhibition of neoplastic transformation in JB6 cell (in words) ([4]; 75 μM): completely inhibits
- Prevention of neoplastic cell transformation, EGF, soft agar (figure statement, in words) ([4]; 75 μM): prevented neoplastic cell transformation
- inhibition at 75 µM ([4]; Mus musculus, 75 μM): 100%
